# Measurements from US4942256A, “Novel intermediates in the manufacture of novel thromboxane A2 antagonists” (National Research Development Corporation, priority 1988, dated 1990).
# Experiments:
# [1] = test system: U-46619-induced platelet aggregation; test: Inhibition of U-46619-induced platelet aggregation (rat), in vitro in rat platelet rich plasma; type: cell-based; conditions: for IC50: 1 min preincubation at 37° C
# Experimental: a. Inhibition of U-46619-induced platelet aggregation (rat)
# Platelet rich plasma (PRP) was prepared from heparanized whole blood (5 units/ml) drawn from the abdominal aorta of ether anesthetized rats. PRP was prepared by centrifugation (Sorvall RC2B, DuPont, Wilmington, Del.) of the whole blood at 150×g for 10 min. Platelet poor plasma (PPP) was prepared by centrifugation at 1200×g for 20 min. Aliquots of PRP and PPP were used to standardize the aggregometer (Payton, Buffalo, N.Y., model 300B) with the recorder (Riken Denshi 2 channel recorder, Payton, model SP H5P) for measurement of […] light transmittance, respectively.
# Platelet aggregation was measured as an increase in light transmittance. PRP (390 μl aliquot+5 μl compound vehicle) was preincubated for 1 min. at 37° C., with stirring at 900 rpm in the aggregometer. The vehicle control response was obtained by adding U-46619 (Cayman Chemical, Ann Arbor, Mich., 1-2 units/cuvette/10 μl ) to the aliquot of PRP. Aggregation was monitored until maximum aggregation was achieved (approximately 3 min. following the addition of U-46619). Amount of aggregation was measured by grids on the strip chart.
# Compounds were dissolved in either ethanol (ETOH) or Na2 CO3 (0.1M) and preincubated at the desired concentration in PRP for 1 min. at 37° C. with stirring. At the end of the preincubation, U-46619 was added and aggregation measured. Inhibition of aggregation by compound was calculated as percent inhibition of the control aggregation response to U-46619. Dose response curves were generated and IC50 's calculated by linear regression.
# [2] = test system: U-46619 induced platelet aggregation; test: Ex vivo inhibition of U-46619 induced platelet aggregation, intravenous (rat); type: in vivo; conditions: for ED50: Platelet, iv, 0.5 min, i.v. bolus, blood sampled 30 sec. later
# Experimental: (§1) II. Ex vivo--(rat) Inhibition of U-46619 induced platelet aggregation
# Rats were anesthetized with ether and the jugular vein exposed. Compound dissolved in 0.1M Na Carbonate was injected as a bolus into the jugular vein. Blood (5 ml, heparanized) was sampled 30 sec. later from the abdominal aorta. PRP was prepared by quick centrifugation (Eppendorf, model 5415 at 12,000 rpm for 5 sec.) PPP was prepared by centrifugation for 2 min. PRP was diluted 1:1 with PPP from, similarly treated animals. Aggregation was monitored for 5 min. and inhibition was determined as previously described.
# [3] = test system: collagen induced platelet aggregation; test: Inhibition of collagen induced platelet aggregation in dog PRP; type: cell-based; conditions: Canis lupus familiaris
# Experimental: c. Inhibition of collagen induced platelet aggregation in dogs by SC-44161 and SC-46984
# Blood was collected into citrated vacutainers from the jugular veins of conscious dogs and centrifuged at 200×g for 7 min. PRP was separated and an aliquot (450 μl ) incubated 1 min. in the aggregometer (as described above). Collagen (50 μl, Helena Reagent, bovine tendon) was added and aggregation monitored for 5 min. Percent inhibition and IC50 's were determined as previously described.
# [4] = test system: U-46619 induced platelet aggregation; test: Ex vivo inhibition of U-46619 induced platelet aggregation, intragastric (rat); type: in vivo; conditions: for ED50: read-out: I.G. ED50, ex vivo inhibition of U-46619 induced aggregation; for I.V./I.G. ratio: from the I.V. and the I.G. studies, rat ED50
# Experimental: as §1
# Compounds dissolved in Na Carbonate were administered to conscious rats with an I.G. tube. Fifteen minutes post administration (time previously determined to show maximum effect), rats were anesthetized with ether and blood was sampled from the abdominal aorta. PRP was prepared as described in II a.
# human washed platelets = test: Analysis of partial agonism with SC-46985 (human washed platelets); type: cell-based
# Experimental: b. Analysis of partial agonism with SC-46985 (human washed platelets)
# (§2) Sixty ml of blood were drawn into 1/10 volume of CCD (100 mM Na Citrate and 136 mM glucose, pH 6.5 with HCl) and PRP prepared as described above. PRP was placed on ice for 15 min. One half of the volume of CCD was added and recentrifuged. The platelet pellet was gently resuspended in 1/2 the original volume of PRP in a 0° C. modified Tangen-Hepes-BSA buffer (145 mM NaCl, 5 mM KCl, 0.05 mM CaCl2, 0.1 mM MgCl2, 11 mM glucose, 15 mM Hepes, 1 mg/ml bovine serum albumin, pH adjusted to 7.4 with NaOH). The resuspended platelets were incubated undisturbed at 37° C. for 30 min. After incubation a platelet count was determined and adjusted to 3×10^8 cells/ml with the Tangen-Hepes-BSA buffer.
# (§3) 425 μl of the washed human platelet suspension was incubated in the aggregometer in the presence of 16 mM CaCl2 (50 μl ) and SC-46985 for 5 and 10 min. […] (In a study similar to (a) above, aliquots of human washed platelets were incubated with various concentrations of SC-46985 and U-46619 to determine dose-related inhibition of aggregation).
# [5] = test system: human washed platelets stimulated with U-46619; test: Inhibition of U-46619 stimulated aggregation of human washed platelets by SC-46985; type: cell-based; conditions: Platelet
# Experimental: as §2, §3
# [6] = Rattus norvegicus, Platelet, vehicle ETOH
# [7] = Rattus norvegicus, Platelet, vehicle Na2CO3 (0.1M), (a) values are estimates based on all-or-none responses
# [8] = Platelet, po, 0.25 h, rat, intragastric, 15 min post administration
Structure (SMILES),"IC50 [1, 6]","IC50 [1, 7]","times more potent than SC-44161 (in vitro) ([1]; rat PRP, U-46619)",ED50 [2],IC50 [3],"ED50 [4, 8]",I.V./I.G. ratio [4],further results
"CC(=NNC(=S)Nc1ccccc1)[C@@H]1[C@H]2CC[C@H](C2)[C@H]1C/C=C\CCCC(=O)O [SC-46984, 7-[3α-[1-[[(Phenylamino)thioxomethyl]hydrazono]ethyl]-1R, 1α,4α-bicyclo[2.2.1]hept-2β-yl]5Z-heptenoic acid]",0.05 µM,0.0007 µM,approximately 100 times,0.0087 mg/kg,2.09 µM,0.44 mg/kg,51,"more potent in aqueous solution than in ethanol ([1]; rat PRP, Na carbonate vs ETOH): 10-50 times; times more potent than SC-44161 (I.V.) ([2]; i.v., ex vivo): approximately 3.5 times; times more potent than SC-44161 (I.G.) ([4]; rat, intragastric, ex vivo): approximately 2.8 times"
CC(=NNC(=S)Nc1ccccc1)[C@H]1[C@@H]2CC[C@@H](C2)[C@@H]1C/C=C\CCCC(=O)O [SC-46985],0.97 µM,~2.5 µM,–,0.045 mg/kg,–,–,–,"partial agonist activity (human washed platelets; 5 and 10 min. incubation): lack of partial agonist activity; evidence of shape change or aggregation (partial agonism) (human washed platelets; after 5 and 10 min. incubation): no evidence of shape change or aggregation; times less potent than SC-44161 (I.V.) ([2]; i.v., ex vivo): approximately 1.5 times; IC50 [5]: 5.6 µM"
"CC(=NNC(=S)Nc1ccccc1)[C@@H]1[C@H]2CC[C@H](C2)[C@H]1C/C=C/CCCC(=O)O [SC-47721, 7-[3α-[1-[[(Phenylamino)thioxomethyl]hydrazono]ethyl]-1R, 1α,4α-bicyclo[2.2.1]hept-2β-yl]-5E-heptenoic acid]",–,~0.0075 µM,10-50 times,–,–,–,–,"potency compared with SC-46984 (in vitro) ([1]; rat PRP, U-46619): less potent than SC 46984; inhibition at 1 mg/kg ([4]; Platelet, po, 0.25 h, rat, intragastric, 1 mg/kg, 15 min post administration): 37.5%"
CC(=NNC(=S)Nc1ccccc1)C1C2CCC(C2)C1CC=CCCCC(=O)O (stereo not shown) [SC-46986],–,–,–,–,–,–,–,IC50 ([1]; vehicle ETOH): 0.69 µM
"CC(=NNC(=S)Nc1ccccc1)C1C2CCC(C2)C1CC=CCCCC(=O)O (racemic) [SC-44161, (±)7-[3α[[(Phenylamino)thioxomethyl]hydrazono]ethyl]1α,4α-bicyclo[2.2.1]hept-2β-yl]-5Z-heptenoic acid]",–,0.07 µM,–,0.031 mg/kg,11.4 µM,1.21 mg/kg,39,"more potent when in aqueous solution than when dissolved in ethanol ([1]; rat PRP, Na carbonate vs ETOH): 5-10 fold"
